Drawing on PubChem BioAssay (NCI), this text covers GI50 and TGI for nine compounds.

SMILES strings stand for the structures.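 Step 1: Grow cells in 96-well plates. Step 2: Expose to compound for 48 hours at 5 concentrations. Step 3: Interpolate endpoints linearly; if unreached, use highest concentration. Here, GI50 denotes the concentration required for 50% inhibition of growth. TGI is the concentration that stops growth completely.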 A value given as a limit tells only on which side of the number the result lay.

Test systems include A549 NSCLC; BT-549 breast; SF-295 CNS; OVCAR-8 ovarian; SNB-19 CNS; HCT-15 colon; SK-MEL-2 melanoma; K-562 leukemia.
What all share (assay): inhibition of tumour cell growth, NCI panel, 48 h

`CN[C@@H](C)C(=O)N[C@H]1CN(C(=O)CC(C)C)CC[C@H]2CC[C@@H](C(=O)NC(c3ccccc3)c3ccccc3)N2C1=O`: the GI50 with A549 NSCLC is > 100 µM; in the test on BT-549 breast, 0.231 µM; with SF-295 CNS it was > 100 µM; in the test with OVCAR-8 ovarian it was 61.6 µM; with SNB-19 CNS, > 100 µM; in the test on HCT-15 colon it was > 100 µM. Further, the GI50 with SK-MEL-2 melanoma was 43.7 µM; in the test on K-562 leukemia, 97.9 µM. Besides, the TGI with A549 NSCLC, in the test on BT-549 breast, in the test on SF-295 CNS, in the test on OVCAR-8 ovarian, with SNB-19 CNS and in the test on HCT-15 colon was > 100 µM in each case. Further, the TGI in the test on SK-MEL-2 melanoma and in the test with K-562 leukemia was > 100 µM throughout.

In the case of `CCN(CC)CCCC(C)Nc1cc(-c2ccc(C(F)(F)F)cc2)c(C#N)c2nc3ccccc3n12` (stereo unspecified), the GI50 in the test with A549 NSCLC was 3.44 µM; with BT-549 breast it was 1.6 µM; in the test on SF-295 CNS, 1.89 µM; with OVCAR-8 ovarian, 2.41 µM; in the test on SNB-19 CNS it was 2.96 µM; in the test with HCT-15 colon it was 1.88 µM. Moreover, the GI50 in the test with SK-MEL-2 melanoma is 2.27 µM. For the same compound, the TGI in the test with A549 NSCLC was determined as 10.9 µM; with BT-549 breast, 3.16 µM; in the test on SF-295 CNS, 3.57 µM; in the test with OVCAR-8 ovarian it was 5.51 µM; in the test with SNB-19 CNS it was 11.1 µM; in the test with HCT-15 colon, 4.03 µM. This compound also yielded a TGI in the test with SK-MEL-2 melanoma of 4.15 µM.

For `COc1cc(-c2nc(NC(C)=O)sc2-c2ccnc(NCCNS(=O)(=O)c3ccccc3)n2)ccc1Cl`, the GI50 was 4.5 µM in the test on A549 NSCLC; 3.1 µM in the test with BT-549 breast; 2.74 µM with SF-295 CNS; 5.21 µM with OVCAR-8 ovarian; 6.51 µM with SNB-19 CNS; 3.78 µM in the test on HCT-15 colon. Also, the GI50 in the test with SK-MEL-2 melanoma was 2.42 µM; in the test on K-562 leukemia it was 3.87 µM. For the same compound, the TGI in the test with A549 NSCLC was > 100 µM; with BT-549 breast it was > 100 µM; in the test on SF-295 CNS it was 13.4 µM; with OVCAR-8 ovarian it was > 100 µM; in the test on SNB-19 CNS, > 100 µM; in the test with HCT-15 colon, > 100 µM. Besides, the TGI was 6.23 µM in the test on SK-MEL-2 melanoma and > 100 µM with K-562 leukemia.

Regarding `COC(=O)[C@H]1[C@@H](O)[C@@]2(O)c3c(OC)cc(O[C@@H]4O[C@@H]([C@H](O)CO)CO[C@H]4OC)cc3O[C@@]2(c2ccc(OC)cc2)[C@@H]1c1ccccc1`, the GI50 with A549 NSCLC is 0.00463 µM; in the test on BT-549 breast, 0.00434 µM; in the test with SF-295 CNS, 0.0127 µM; in the test with OVCAR-8 ovarian, 0.0193 µM; in the test with SNB-19 CNS it was 0.00277 µM; with HCT-15 colon it was 0.233 µM. Moreover, the values for the GI50 with SK-MEL-2 melanoma and in the test on K-562 leukemia were 0.00354 µM and 0.00386 µM, respectively. Moreover, the TGI in the test with A549 NSCLC was 0.0457 µM; in the test on BT-549 breast, 0.0322 µM; with SF-295 CNS, 0.0471 µM; in the test with OVCAR-8 ovarian, 0.136 µM; in the test with SNB-19 CNS, 0.0384 µM; in the test on HCT-15 colon, > 1 µM. Further, the TGI with SK-MEL-2 melanoma was 0.0158 µM; in the test on K-562 leukemia it was > 1 µM.

Take `C[C@@H](N)C1CCC(C(=O)Nc2ccncc2)CC1` (stereo partly specified): the GI50 is > 100 µM with A549 NSCLC; > 88.4 µM in the test on BT-549 breast; > 100 µM with SF-295 CNS; > 100 µM with OVCAR-8 ovarian; > 100 µM in the test with SNB-19 CNS; > 100 µM in the test on HCT-15 colon. The GI50 with SK-MEL-2 melanoma and in the test with K-562 leukemia was > 100 µM throughout. Besides, the TGI in the test on A549 NSCLC, in the test on BT-549 breast, in the test with SF-295 CNS, in the test with OVCAR-8 ovarian, with SNB-19 CNS and in the test on HCT-15 colon was > 100 µM each time. Moreover, the TGI in the test on SK-MEL-2 melanoma and in the test with K-562 leukemia was > 100 µM throughout.

As to `COC(=O)NC1(NC(=O)OC)NC(=O)c2cc(OC)c(OC)cc2N1`, the TGI in the test with A549 NSCLC is > 100 µM; in the test on SF-295 CNS it was > 100 µM; in the test on OVCAR-8 ovarian, > 100 µM; with SNB-19 CNS it was > 100 µM; with HCT-15 colon, > 100 µM; in the test with SK-MEL-2 melanoma, 67 µM. Also, the TGI in the test with K-562 leukemia was > 100 µM.

`COc1ccccc1-c1cc(/C=C2\C(=O)Nc3ncc(Br)cc32)cc(Br)c1O`: the GI50 in the test with A549 NSCLC is 11.8 µM; in the test with BT-549 breast it was 14.2 µM; with SF-295 CNS, 10.5 µM; with OVCAR-8 ovarian it was > 19.1 µM; in the test on SNB-19 CNS, 12.5 µM; in the test on HCT-15 colon, 9.6 µM. Moreover, the results for the GI50 with SK-MEL-2 melanoma and in the test with K-562 leukemia were 8.89 µM and 9.76 µM, respectively. Further, the TGI with A549 NSCLC, in the test with BT-549 breast, in the test with SF-295 CNS, in the test on OVCAR-8 ovarian, in the test on SNB-19 CNS and in the test on HCT-15 colon was > 25 µM in each case. The TGI with SK-MEL-2 melanoma and with K-562 leukemia was > 25 µM in each case.

`Cc1ccc(S(=O)(=O)Oc2ccc([N+](=O)[O-])cc2[N+](=O)[O-])cc1`: the GI50 with A549 NSCLC is 8.53 µM; with BT-549 breast, 5.41 µM; in the test on SF-295 CNS, 10.4 µM; with OVCAR-8 ovarian, 4.24 µM; in the test with SNB-19 CNS, 17.2 µM; in the test on HCT-15 colon, 3.61 µM. Besides, the GI50 with SK-MEL-2 melanoma was 4.31 µM; with K-562 leukemia it was 0.689 µM. Also, the TGI with A549 NSCLC was 22.2 µM; with BT-549 breast, 18 µM; in the test on SF-295 CNS, 25.2 µM; in the test on OVCAR-8 ovarian it was 20.5 µM; in the test with SNB-19 CNS it was 38.1 µM; in the test on HCT-15 colon it was 17.9 µM. Further, the TGI in the test with SK-MEL-2 melanoma was 16.6 µM; in the test with K-562 leukemia, > 100 µM.

As to `O=Nc1ccc(O)c2ccccc12`, the GI50 in the test with A549 NSCLC is 2.14 µM; in the test on BT-549 breast, 1.93 µM; in the test on SF-295 CNS, 2.04 µM; in the test on OVCAR-8 ovarian, 1.57 µM; in the test with SNB-19 CNS, 2.31 µM; with HCT-15 colon, 2.14 µM. Further, in the test on SK-MEL-2 melanoma, the GI50 is 1.7 µM. The TGI with A549 NSCLC was determined as 4.79 µM; with BT-549 breast it was 3.35 µM; in the test on SF-295 CNS, 4.55 µM; in the test with OVCAR-8 ovarian it was 5 µM; with SNB-19 CNS it was 6.65 µM; with HCT-15 colon, 4.98 µM. The compound further showed a TGI with SK-MEL-2 melanoma of 3.72 µM.
